Measured values from the supplement of paper PMC4932681.

Tests used:
Assay in all cases: viability inhibition at highest dose (% inhibition); higher = more growth inhibition
BT-474 Tam1 = details: 4-OH-tamoxifen in medium 1 µM; 72 h
Experimental: (§1)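 Percent inhibition of viability (CellTiter-Glo, 72 h) at the highest tested concentration (D5), normalised to DMSO (0%) and 100 µM benzethonium chloride (100%). Resistant lines and the 'in 1µM tamoxifen' arms were tested in 1 µM 4-OH-tamoxifen.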

BT-474 = details: 72 h
Experimental: as §1

T-47D = details: 72 h
Experimental: as §1

ZR-75-1 = details: 72 h
Experimental: as §1

T-47D Tam2 = details: 4-OH-tamoxifen in medium 1 µM; 72 h
Experimental: as §1

MCF-7 = details: 72 h
Experimental: as §1

BT-474 Tam2 = details: 4-OH-tamoxifen in medium 1 µM; 72 h
Experimental: as §1

ZR-75-1 Tam2 = details: 4-OH-tamoxifen in medium 1 µM; 72 h
Experimental: as §1

MCF-7 Tam1 = details: 4-OH-tamoxifen in medium 1 µM; 72 h
Experimental: as §1

T-47D Tam1 = details: 4-OH-tamoxifen in medium 1 µM; 72 h
Experimental: as §1

ZR-75-1 Tam1 = details: 4-OH-tamoxifen in medium 1 µM; 72 h
Experimental: as §1

Structure (SMILES)	viability inhibition at highest dose (BT-474 Tam1)	viability inhibition at highest dose (BT-474; 4-OH-tamoxifen in medium 0 µM)	viability inhibition at highest dose (BT-474; 4-OH-tamoxifen in medium 1 µM)	viability inhibition at highest dose (T-47D; 4-OH-tamoxifen in medium 0 µM)	viability inhibition at highest dose (T-47D; 4-OH-tamoxifen in medium 1 µM)	viability inhibition at highest dose (ZR-75-1; 4-OH-tamoxifen in medium 0 µM)	viability inhibition at highest dose (ZR-75-1; 4-OH-tamoxifen in medium 1 µM)	viability inhibition at highest dose (T-47D Tam2)	viability inhibition at highest dose (MCF-7; 4-OH-tamoxifen in medium 0 µM)	viability inhibition at highest dose (MCF-7; 4-OH-tamoxifen in medium 1 µM)	viability inhibition at highest dose (BT-474 Tam2)	viability inhibition at highest dose (ZR-75-1 Tam2)	viability inhibition at highest dose (MCF-7 Tam1)	viability inhibition at highest dose (T-47D Tam1)	viability inhibition at highest dose (ZR-75-1 Tam1)
C[C@]12CC[C@@H]3c4ccc(OC(=O)N(CCCl)CCCl)cc4CC[C@H]3[C@@H]1CC[C@@H]2O [Estramustine] (drug 990000 nM)	-8.94	-9.96	-0.556	-27.1	-3.37	-4.2	3.75	4.35	-17	-12.1	1.08	-3.72	-4.18	-1.27	0.469
COc1cc([C@@H]2c3cc4c(cc3[C@@H](O[C@@H]3O[C@@H]5CO[C@@H](C)O[C@H]5[C@H](O)[C@H]3O)[C@H]3COC(=O)[C@H]23)OCO4)cc(OC)c1O [Etoposide] (drug 10000 nM)	14	-4.44	27.7	46.7	15.7	32.5	19.4	7.25	8.22	12.7	-7.49	15.5	-2.1	42.1	23
CO[C@H]1C[C@@H]2CC[C@@H](C)[C@@](O)(O2)C(=O)C(=O)N2CCCC[C@H]2C(=O)O[C@H]([C@H](C)C[C@@H]2CC[C@@H](OCCO)[C@H](OC)C2)CC(=O)[C@H](C)/C=C(\C)[C@@H](O)[C@@H](OC)C(=O)[C@H](C)C[C@H](C)/C=C/C=C/C=C/1C [Everolimus] (drug 100 nM)	22.1	15.8	11.4	29.1	24	35.9	32.7	25.9	47.5	34.3	15.8	38.4	15.6	28.2	34.2
C=C1C[C@@H]2[C@H](CC[C@]3(C)C(=O)CC[C@@H]23)[C@@]2(C)C=CC(=O)C=C12 [Exemestane] (drug 10000 nM)	0.0289	0.814	0.09	-12.5	-2.8	-15.1	-6.66	19.2	19.4	7.88	-0.955	-3.66	3.68	2.32	4.25
O=S(=O)(c1cccc2cnccc12)N1CCCNCC1 [Fasudil  (HA-1077)] (drug 50000 nM)	-5.55	-7	-17.4	-20.9	-12.4	-7.56	-6.81	20.1	21	-0.98	-12.9	-8.22	7.1	2.59	3.21
CC(C)(C)NC(=O)[C@H]1CC[C@H]2[C@@H]3CC[C@H]4NC(=O)C=C[C@]4(C)[C@H]3CC[C@]12C [Finasteride] (drug 10000 nM)	27.2	-6.68	-0.99	-5.04	-8.61	-8.28	7.55	18	-0.974	6.29	19.1	4.5	3.61	14.8	-2.42
CCCCCCCCc1ccc(CCC(N)(CO)CO)cc1 [Fingolimod] (drug 10000 nM)	96.8	94.4	96.6	69.4	91.9	40.8	52.5	59.1	94.6	71.4	95.2	55.5	11.9	62.4	45.3
O=c1[nH]c(=O)n([C@H]2C[C@H](O)[C@@H](CO)O2)cc1F [Floxuridine] (drug 10000 nM)	12.3	30.5	27.9	22.3	7.89	22.7	12.6	21.3	21	1.8	3.04	18.5	5.39	59	8.75
Nc1nc(F)nc2c1ncn2[C@@H]1O[C@H](CO)[C@@H](O)[C@@H]1O [Fludarabine] (drug 10000 nM)	2.46	-6.6	-12.5	-8	-12.2	-0.221	-4.24	-0.0717	-24.7	10	4.57	-3.77	-4.15	20.4	-3.09
O=c1[nH]cc(F)c(=O)[nH]1 [Fluorouracil] (drug 10000 nM)	1.71	-7.65	-2.76	13.4	10.1	16.4	15.2	9.76	35.1	4.26	0.595	17.1	8.84	5.54	8.57
CC(C)C(=O)Nc1ccc([N+](=O)[O-])c(C(F)(F)F)c1 [Flutamide] (drug 10000 nM)	6.08	-10.2	-11.4	0.571	-1.73	-10.7	-3.17	11.2	-18	15.9	6.26	-5.1	-3.99	6.02	-0.0944
COc1cc2c(Oc3ccc(NC(=O)C4(C(=O)Nc5ccc(F)cc5)CC4)cc3F)ccnc2cc1OCCCN1CCOCC1 [Foretinib (Foretinib)] (drug 1000 nM)	31.4	1.4	44.6	20.6	17.8	0.383	13.7	28.5	16.9	20.7	10.3	19.5	26.2	19	9.43
C[C@]12CC[C@@H]3c4ccc(O)cc4C[C@@H](CCCCCCCCC[S+]([O-])CCCC(F)(F)C(F)(F)F)[C@H]3[C@@H]1CC[C@@H]2O (stereo not given in full) [Fulvestrant] (drug 1000 nM)	-6.25	-5.27	-0.276	1.98	-1.62	-18.5	-4.88	8.69	31.4	17.5	4.97	-6.33	-0.218	12.9	-1.86
